# According to US7488720B2, “A1 adenosine receptor agonists” (CV Therapeutics, Inc., priority 2005, dated 2009):
# Assay: Blood brain penetration assay (in situ brain perfusion)
# Type: in vivo
# Conditions: rat in situ brain perfusion, 5 μM, 1 min, left cerebrum
# Experimental: Studies of transport of the compounds of Formula I were carried out in accordance with an in situ brain perfusion technique disclosed in “Methods in Molecular medicine, Vol. 89, pp209-218, by Quentin R. Smith and David D. Allen
# Anesthesia: Cocktail of 90 mg/kg ketamine/9 mg/kg xylazine was given at a volume of […] as i.m. injection.
# Surgery and perfusion: The left common carotid artery was cannulated, the chest opened and the heart severed. The brain was perfused at 10 ml/min for a predetermined duration of time, followed by post-perfusion with perfusion solution for 30 seconds.
# A stock solution of the test drug was prepared as a solution of […] in DMSO.
# C. Treatment • 1. Three rats per group were infused with the study compounds or a control compound via the left common carotid artery. • 2. Brain and perfusion solution samples were obtained at the end of the perfusions. D. Sample Collection • 1. Brains were collected and the left hemispheres or regions thereof were segmented and flash frozen in liquid nitrogen. • 2. A sample of the perfusion solution was also taken after each perfusion into an Eppendorf tube, and stored at −80° C. in separate container from the brain samples. • 3. When necessary, prior to the perfusion, blood samples were collected in tubes prepared with study anticoagulant. Whole blood was centrifuged at 8000 rpm for 3 minutes. Plasma was collected into Eppendorf tubes and frozen at −80° C. in separate container from the brain samples. E. Analytical and Data Analysis
# Concentrations of study and marker compounds in all samples was measured using LC/MS-MS (and/or LC-UV technique when applicable) and permeability kinetics were determined.
row,rate of penetration of the blood brain barrier,SMILES
1,61.5 pmol/g/s,"CN(C)CCCN1c2ccccc2Sc2ccc(Cl)cc21 [Chlorpromazine, reference compound]"
2,0.015 pmol/g/s,"O=C(NCc1nc(NC2CCCC2)c2ncn([C@@H]3O[C@H](CO)[C@@H](O)[C@H]3O)c2n1)c1ccc(S(=O)(=O)O)cc1 [Example 6A, 4-[N-({9-[(4S,2R,3R,5R)-3,4-dihydroxy-5-(hydroxymethyl)oxolan-2-yl]-6-(cyclopentylamino)purin-2-yl}methyl)carbamoyl]benzenesulfonic acid]"
3,0.10 pmol/g/s,"O=C(CS(=O)(=O)O)NCc1nc(NC2CCCC2)c2ncn([C@@H]3O[C@H](CO)[C@@H](O)[C@H]3O)c2n1 [Example 6B, N-({9-[(4S,2R,3R,5R)-3,4-dihydroxy-5-(hydroxymethyl)oxolan-2-yl]-6-(cyclopentylamino)purin-2-yl}methyl)carbamoylmethylsulfonic acid]"
